# Test results: patent publication US10328048B2, “Cafestol for treating diabetes” (Aarhus Universitet, priority 2014, dated 2019)
# Entries after “also recorded” stand apart in the source; their conditions may differ.
# How the values were obtained:
# [1] = oral 1.5 mg/mouse, cited from earlier work
# INS-1E cells [2] = test: Chronic (72 hours) insulin secretion from INS-1E cells; format: cell-based, rat; set-up: unit not given here
# Method: INS-1E cells were seeded onto 24 well plates and incubated for 72 hours in RPMI 1640 supplemented with cafestol. After 72 hours the buffer was changed to a modified Krebs Ringer buffer and the cells were incubated for 60 min at low (3.3 mM) and high (16.7 mM) glucose. Hereafter the medium was removed for later insulin analysis using a sensitive rat insulin kit from Linco.
# [3] = healthy ileostomy volunteers, cited from earlier work
# [4] = tested on: isolated islets of Langerhans; test: Insulin secretion experiment with isolated islets of Langerhans from KKAy mice after 10 weeks intervention; format: in vivo
# Method: (§1) The effects of cafestol were investigated in a 10 week dietary intervention study in a type 2 diabetic animal model. Five weeks old male KKAy mice were randomly assigned to either of three intervention groups (n=12 per group), i.e. 1) Control (no cafestol added), 2) supplementation with 0.382 mg/day of cafestol/kg mice, and 3) supplementation with 1.146 mg/day of cafestol/kg mice. The cafestol was added to food pellets daily. At the beginning of the study (week 0) fasting blood glucose, insulin and lipids (total cholesterol, LDL, HDL and triglycerides) were measured. Every 2nd week fasting blood glucose, body weight and food intake was measured. At the end of the intervention (week 10) fasting blood glucose, insulin, glucagon and lipids (total cholesterol, LDL-cholesterol, HDL-cholesterol) were measured. The pancreas was removed and treated with collagenase and subsequently, the effects on insulin secretory capacity was studied in isolated islets of Langerhans. Furthermore, gene expression levels of key regulatory genes in liver, fat and muscle tissues were measured using RT-PCR.
# INS-1E cells [5] = test: Acute insulin secretion from INS-1E cells; format: cell-based, rat; set-up: Insulin secretion, Mean: unit not given here; settings: for Insulin secretion, Mean: 16.7 mM glucose, 60 min
# Method: INS-1E cells were seeded onto 24 well plates before incubation experiments. At the day of the experiment the buffer was changed to a modified Krebs-Ringer-buffer and the cells were preincubated in the same buffer for 60 min. […]
# KKAy mice = test: 10 week dietary intervention study in diabetic KKAy mice; format: in vivo; settings: 10 weeks; for Fasting plasma glucose compared to the control group: in food pellets
# Method: as §1
# INS-1E cells [6] = test: Chronic (72 hours) insulin secretion from INS-1E cells; format: cell-based, rat; settings: low glucose level (FIG. 2)
# [7] = tested on: Human skeletal muscle cells; test: Acute glucose uptake in human skeletal muscle cell line; format: cell-based; settings: 100 nM insulin, 15 minutes
# Method: Human skeletal muscle cells were seeded in 24 wells, ([…] cells/well) containing 1 mL growth medium (Promocell, Heidelberg, Germany). Once 70-90% confluence was reached, the growth medium was replaced by 1 mL differentiation medium (Promocell, Heidelberg, Germany). This medium was changed every 2nd day for two weeks until multinucleated syncytia was visible in microscope. Cells were washed twice with PBS. 300 μL of an alternatively modified-Krebs Ringer Buffer (containing 0.1% BSA with 0.1 mM glucose, 1.5 μCi deoxy-d-glucose 2-[1,2-3H(M)] (Perkin Elmer, 2740 Skovlunde, Denmark) and 100 nM insulin was put in each well. Five types of solutions were prepared: one with […] cafestol or rosiglitazone (control), a second with a 10^−6 M cafestol, a third with a 10^−10 M cafestol, a fourth with a 10^−12 M cafestol, and a fifth with a 10^-8 M rosiglitazone. Cells were kept on ice while adding medium. After 15 minutes of incubation at 37° C., 5.0% CO2, cells were washed twice with the modified-Krebs Ringer Buffer supplemented with 0.1% BSA and 50 mM glucose, stopping the incubation and glucose uptake. Hereafter, 0.2 mL 0.1 M NaOH was added to each well for a 30 minute room temperature incubation. 0.1 mL was transferred from each well to a 24 well counting plate (Wallac Oy, Turku, Finland). After adding 0.9 mL Hisafe II scintillator (Perkin Elmer, 2740 Skovlunde, Denmark), plates were stored in the dark for 12 hours before counted using a Trilux Micro Beta Counter (Wallac Oy, Turku, Finland). “Counts per minute” is a direct measure of glucose uptake.
smiles,measurement,setting,value
C[C@@]12CCc3occc3[C@H]1CC[C@@]13C[C@@H](CC[C@H]12)[C@@](O)(CO)C3 [Cafestol],Parent compound as share of activity present in portal blood,[1]; 50 min after administration,70%
same,Parent compound as share of total radioactivity present in portal blood,[1]; two minutes after dosing,50%
same,"Insulin secretion, Mean","INS-1E cells [2]; 3.3 mM glucose, 72 hours incubation with cafestol 10^−8 M",0.7482
same,"Insulin secretion, Mean","INS-1E cells [2]; 3.3 mM glucose, 72 hours incubation with cafestol 10^−8 M, listed as cafestol",stimulatory effect
same,"Insulin secretion, Mean","INS-1E cells [2]; 3.3 mM glucose, 72 hours incubation with cafestol 10^−10 M",0.5853
same,"Insulin secretion, Mean","INS-1E cells [2]; 3.3 mM glucose, 72 hours incubation with cafestol 10^−10 M, listed as cafestol",neutral effect
same,"Insulin secretion, Mean","INS-1E cells [2]; 3.3 mM glucose, 72 hours incubation with cafestol 10^−12 M",0.4999
same,"Insulin secretion, Mean","INS-1E cells [2]; 3.3 mM glucose, 72 hours incubation with cafestol 10^−12 M, listed as cafestol",significantly decreased
same,"Insulin secretion, Mean","INS-1E cells [2]; 16.7 mM glucose, 72 hours incubation with cafestol 10^−8 M",1.661
same,"Insulin secretion, Mean","INS-1E cells [2]; 16.7 mM glucose, 72 hours incubation with cafestol 10^−8 M, listed as cafestol",significant increase
same,"Insulin secretion, Mean","INS-1E cells [2]; 16.7 mM glucose, 72 hours incubation with cafestol 10^−10 M",1.322
same,"Insulin secretion, Mean","INS-1E cells [2]; 16.7 mM glucose, 72 hours incubation with cafestol 10^−10 M, listed as cafestol",significant increase
same,"Insulin secretion, Mean","INS-1E cells [2]; 16.7 mM glucose, 72 hours incubation with cafestol 10^−12 M",0.9279
same,Absorbed from the gastrointestinal tract,[3]; estimated from recovery in ileostomy effluent,approximately 70%
same,Dose recovered in urine,[3],approximately 1%
same,Glucose sensitivity of islets (insulin secretion) compared to Control,[4]; after 10 weeks intervention with cafestol,more glucose sensitive
same,Insulin stimulation at low glucose concentration,"[4]; islets after 10 weeks intervention, low glucose",not present
same,"Insulin secretion, Mean",INS-1E cells [5]; cafestol 10^−6 M,0.9013
same,"Insulin secretion, Mean",INS-1E cells [5]; cafestol 10^−8 M,0.8682
same,"Insulin secretion, Mean",INS-1E cells [5]; cafestol 10^−10 M,0.8715
same,"Insulin secretion, Mean",INS-1E cells [5]; cafestol 10^−12 M,0.8261
same,Insulin secretion (change vs glucose alone),"INS-1E cells [5]; high glucose, concentrations ranging from 10^−10 M to 10^−6 M",significant increase
same,Fasting plasma glucagon compared to Control,KKAy mice; High cafestol group 1.146 mg/day/kg,significant decreased
same,Fasting plasma glucose compared to the control group,KKAy mice; high concentration 1.146 mg/day/kg,significantly decreased; also recorded: decrease fasting plasma glucose significantly
same,HOMA-IR compared to control group,"KKAy mice; high dose of cafestol, p=0.03",significantly reduced; also recorded: significant decrease
same,Fasting plasma glucose compared to the control group,KKAy mice; low concentration 0.382 mg/day/kg,significantly decreased; also recorded: decrease fasting plasma glucose significantly
same,HOMA-IR compared to control group,KKAy mice; low dose of cafestol,tendency to be reduced
same,Glucagonostatic effect,INS-1E cells [6],significant glucagonostatic effect
same,"Glucose uptake, Counts per minute (± in SEM)",[7]; 10^−8 M,157.2 ± 2.318 Counts per minute
same,"Glucose uptake, Counts per minute (± in SEM)","[7]; 10^−8 M, listed as cafestol",significantly increased
same,"Glucose uptake, Counts per minute (± in SEM)",[7]; 10^−10 M,151.0 ± 2.104 Counts per minute
same,"Glucose uptake, Counts per minute (± in SEM)",[7]; 10^−12 M,146.3 ± 1.839 Counts per minute
